The source of these data is patent US20240368135A1 (VERTEX PHARMACEUTICALS INCORPORATED, priority 2021, published 2024).

SMILES strings stand for the structures.

The target in the experiment is human NaV 1.8 (Homo sapiens, UniProt Q9Y5Y9). Put plainly: E-VIPR assay detecting and measuring NaV inhibition properties. The experiment is classed as cell-based. The following applies: HEK cells expressing truncated human NaV 1.8; no human serum; read-out: IC50 in the E-VIPR Assay. The text has this: Sodium ion channels are voltage-dependent proteins that can be activated by inducing membrane voltage changes by applying electric fields. The electrical stimulation instrument and methods of use, referred to as E-VIPR, are described in International Publication No. WO 2002/008748 A3 and C.-J. Huang et al. Characterization of voltage-gated sodium channel blockers by electrical stimulation and fluorescence detection of membrane potential, 24 Nature Biotech. 439-46 (2006), both of which are incorporated by reference in their entirety. The instrument comprises a microtiter plate handler, an optical system for exciting the coumarin dye while simultaneously recording the coumarin and oxonol emissions, a waveform generator, a current- or voltage-controlled amplifier, and parallel electrode pairs that are inserted into assay plate wells. Under integrated computer control, this instrument passes user-programmed electrical stimulus protocols to cells within the wells of the microtiter plate.
Chain of human NaV 1.8 (Q9Y5Y9 126-399 limits assumed): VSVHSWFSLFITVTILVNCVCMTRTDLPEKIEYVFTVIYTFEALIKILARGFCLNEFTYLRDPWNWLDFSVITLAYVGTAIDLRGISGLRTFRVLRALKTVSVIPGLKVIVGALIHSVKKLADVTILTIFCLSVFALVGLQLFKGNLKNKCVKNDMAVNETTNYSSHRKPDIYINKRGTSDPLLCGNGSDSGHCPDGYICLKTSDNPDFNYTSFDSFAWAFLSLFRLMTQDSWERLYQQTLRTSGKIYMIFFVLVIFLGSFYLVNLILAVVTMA
Chain of human NaV 1.8 (Q9Y5Y9 660-890 limits assumed): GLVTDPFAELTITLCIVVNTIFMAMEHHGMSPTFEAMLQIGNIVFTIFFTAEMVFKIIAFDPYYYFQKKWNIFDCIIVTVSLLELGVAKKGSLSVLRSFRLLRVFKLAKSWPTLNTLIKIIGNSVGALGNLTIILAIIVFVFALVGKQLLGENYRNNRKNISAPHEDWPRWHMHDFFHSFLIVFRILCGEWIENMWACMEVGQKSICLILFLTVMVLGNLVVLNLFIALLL
Chain of human NaV 1.8 (Q9Y5Y9 1148-1722 limits assumed): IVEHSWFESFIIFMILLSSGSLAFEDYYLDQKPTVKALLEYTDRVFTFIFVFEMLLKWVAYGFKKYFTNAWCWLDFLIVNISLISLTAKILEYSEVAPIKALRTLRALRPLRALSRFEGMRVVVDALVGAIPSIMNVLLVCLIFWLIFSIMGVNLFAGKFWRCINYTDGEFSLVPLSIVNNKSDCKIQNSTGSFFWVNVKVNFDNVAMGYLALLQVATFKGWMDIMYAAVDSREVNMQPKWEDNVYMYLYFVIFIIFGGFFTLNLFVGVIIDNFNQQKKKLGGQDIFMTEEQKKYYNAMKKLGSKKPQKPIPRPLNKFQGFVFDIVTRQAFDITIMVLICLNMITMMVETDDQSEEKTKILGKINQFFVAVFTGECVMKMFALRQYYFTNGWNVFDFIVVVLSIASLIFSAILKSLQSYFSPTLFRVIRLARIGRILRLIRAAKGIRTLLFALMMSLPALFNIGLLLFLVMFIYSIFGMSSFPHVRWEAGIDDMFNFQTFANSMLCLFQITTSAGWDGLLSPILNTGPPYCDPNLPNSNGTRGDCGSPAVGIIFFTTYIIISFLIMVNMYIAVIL
16-20 hours prior to running the assay on E-VIPR, HEK cells expressing a truncated form of human NaV 1.8 with full channel activity were seeded into microtiter 384-well plates, pre-coated with matrigel, at a density of 25,000 cells per well. 2.5-5% KIR2.1 Bacmam virus was added to the final cell suspension before seeding into cell plates. HEK cells were grown in Dulbecco's Modified Eagle's Medium (DMEM) supplemented with 10% FBS (Fetal Bovine Serum, qualified; Sigma #F4135), 1% NEAA (Non-Essential Amino Acids, Gibco #11140), 1% HEPES (Gibco #15630), 1% Pen-Strep (Penicillin-Streptomycin; Gibco #15140) and 5 μg/ml Blasticidin (Gibco #R210-01). Cells were expanded in vented cap cell culture flasks, with 90-95% humidity and 5% CO2.
Human Serum (HS, Millipore #S1P1-01KL, or Sigma SLBR5469V and SLBR5470V as a 50%/50% mixture, for 25% assay final concentration) • Bath 1 Buffer: • Sodium Chloride 160 mM (9.35 g/L), Potassium Chloride, 4.5 mM (0.335 g/L), Glucose 10 mM (1.8 g/L), Magnesium Chloride (Anhydrous) 1 mM (0.095 g/L), Calcium Chloride 2 mM (0.222 g/L), HEPES 10 mM (2.38 g/L) in water. • Na/TMA C1 Bath 1 Buffer: • Sodium Chloride 96 mM (5.61 g/L), Potassium Chloride 4.5 mM (0.335 g/L), Tetramethylammonium (TMA)-Cl 64 mM (7.01 g/L), Glucose 10 mM (1.8 g/L), Magnesium Chloride (Anhydrous) 1 mM (0.095 g/L), Calcium Chloride 2 mM (0.222 g/L) HEPES 10 mM (2.38 g/L) in water. • Hexyl Dye Solution (2× concentration): • Bath 1 Buffer containing 0.5% P-cyclodextrin (made fresh prior to each use, Sigma #C4767), 8 μM CC2-DMPE and 2 μM DiSBAC6(3). The solution was made by adding 10% Pluronic F127 stock equal to combined volumes of CC2-DMPE and DiSBAC6(3). The order of preparation was first mix Pluronic and CC2-DMPE, then add DiSBAC6(3), then while vortexing add Bath 1/p-Cyclodextrin.
Compound Loading Buffer (2× concentration): Na/TMA C1 Bath1 Buffer containing HS (omitted in experiments run in the absence of human serum (HS)) 50%, VABSC-1 1 mM, BSA 0.2 mg/ml (in Bath-1), KCl 9 mM, DMSO 0.625%.
1) To reach the final concentration in each well, 375 nL of each compound was pre-spotted (in neat DMSO) into polypropylene compound plates at 240× desired final concentration from an intermediate stock concentration of 0.075 mM, in an 11 point dose response, 3-fold dilution, resulting in a top dose of 300 nM final concentration in the cell plate. Vehicle control (neat DMSO), and positive control (an established NaV1.8 inhibitor, 25 μM final in assay in DMSO) were added manually to the outermost columns of each plate respectively. The compound plate was backfilled with 45 μL per well of Compound Loading Buffer resulting in a 240 fold dilution of compound following a 1:1 transfer of compound into the cell plate (see Step 6). Final DMSO concentration for all wells in the assay was 0.625% (0.75% DMSO was supplemented to the Compound Loading Buffer for a final DMSO concentration of 0.625%). […]
The IC50 is the midpoint of a concentration-inhibition curve. For `COc1c([C@H]2[C@H](C(=O)Nc3ccnc(C(O)C4CC4)c3)O[C@@](C)(C(F)(F)F)[C@H]2C)ccc(F)c1F` (single isomer, unassigned) [Compound 251, rel-(2R*,3S*,4S*,5R*)-N-(2-(cyclopropyl(hydroxy)methyl)pyridin-4-yl)-3-(3,4-difluoro-2-methoxyphenyl)-4,5-dimethyl-5-(trifluoromethyl)tetrahydrofuran-2-carboxamide], the IC50 was < 10 nM.
The value for `COc1c([C@H]2[C@H](C(=O)Nc3cc(C(O)CO)ncc3C)O[C@@](C)(C(F)(F)F)[C@H]2C)ccc(F)c1F` (single isomer, unassigned) [Compound 205, rel-(2R*,3S*,4S*,5R*)-3-(3,4-difluoro-2-methoxyphenyl)-N-(2-(1,2-dihydroxyethyl)-5-methylpyridin-4-yl)-4,5-dimethyl-5-(trifluoromethyl)tetrahydrofuran-2-carboxamide] was < 10 nM; that for `COCc1c(F)ccc([C@H]2[C@H](C(=O)Nc3ccc(C(N)=O)nc3)O[C@@](C)(C(F)(F)F)[C@H]2C)c1OC` (stereo in doubt) [Compound 179, rel-5-((2R,3S,4S,5R)-3-(4-fluoro-2-methoxy-3-(methoxymethyl)phenyl)-4,5-dimethyl-5-(trifluoromethyl)tetrahydrofuran-2-carboxamido)picolinamide] was 10 to 100 nM.
With `COc1c([C@H]2[C@H](C(=O)Nc3cncc(S(=O)(=O)N(C)C)c3)O[C@@](C)(C(F)(F)F)[C@H]2C)ccc(F)c1F` (stereo in doubt) [Compound 453, rel-(2R,3S,4S,5R)-3-(3,4-difluoro-2-methoxyphenyl)-N-(5-(N,N-dimethylsulfamoyl)pyridin-3-yl)-4,5-dimethyl-5-(trifluoromethyl)tetrahydrofuran-2-carboxamide] the figure was 10 to 100 nM; with `C[C@@H]1[C@H](c2ccc(F)c(F)c2OC(F)F)[C@@H](C(=O)Nc2ccnc(C(O)CO)c2)O[C@]1(C)C(F)(F)F` (single isomer, unassigned) [Compound 81], 100 to 1000 nM; with `Cc1conc1NC(=O)[C@@H]1O[C@@](C)(C(F)(F)F)[C@@H](C)[C@H]1c1ccc(F)c(F)c1OCCO` [Compound 545, (2R,3S,4S,5R)-3-(3,4-difluoro-2-(2-hydroxyethoxy)phenyl)-4,5-dimethyl-N-(4-methylisoxazol-3-yl)-5-(trifluoromethyl)tetrahydrofuran-2-carboxamide], 10 to 100 nM.
The value for `COc1c(C2C(C(=O)Nc3ccncn3)OC(C)(C(F)(F)F)C2C)ccc(F)c1F` (single isomer, unassigned) [Compound 36, 3-(3,4-difluoro-2-methoxy-phenyl)-4,5-dimethyl-N-pyrimidin-4-yl-5-(trifluoromethyl)tetrahydrofuran-2-carboxamide] was < 10 nM.
`COc1c([C@H]2[C@H](C(=O)Nc3ccc(N4CCN(C)CC4=O)nc3)O[C@@](C)(C(F)(F)F)[C@H]2C)ccc(F)c1F` [Compound 391, (2R,3S,4S,5R)-3-(3,4-difluoro-2-methoxyphenyl)-4,5-dimethyl-N-(6-(4-methyl-2-oxopiperazin-1-yl)pyridin-3-yl)-5-(trifluoromethyl)-tetrahydrofuran-2-carboxamide]: the IC50 is 100 to 1000 nM.
Regarding `COCCOc1cc(NC(=O)C2OC(C)(C(F)(F)F)C(C)C2c2ccc(F)c(F)c2OC)cnn1` (single isomer, unassigned) [Compound 34, 3-(3,4-difluoro-2-methoxy-phenyl)-N-[6-(2-methoxyethoxy)pyridazin-4-yl]-4,5-dimethyl-5-(trifluoromethyl)tetrahydrofuran-2-carboxamide], the IC50 was in the range of 10 to 100 nM.
With `COc1c([C@H]2[C@H](C(=O)Nc3cc(C(C)(O)CF)ncn3)O[C@@](C)(C(F)(F)F)[C@H]2C)ccc(F)c1F` (single isomer, unassigned) [Compound 228, rel-(2R*,3S*,4S*,5R*)-3-(3,4-difluoro-2-methoxyphenyl)-N-(6-(1-fluoro-2-hydroxypropan-2-yl)pyrimidin-4-yl)-4,5-dimethyl-5-(trifluoromethyl)tetrahydrofuran-2-carboxamide] the figure was 10 to 100 nM; with `COCC(c1ccc(NC(=O)[C@@H]2O[C@@](C)(C(F)(F)F)[C@@H](C)[C@H]2c2ccc(F)c(F)c2OC)cn1)N1CCC1` (single isomer, unassigned) [Compound 407, rel-(2R*,3S*,4S*,5R*)-N-(6-(1-(azetidin-1-yl)-2-methoxyethyl)-pyridin-3-yl)-3-(3,4-difluoro-2-methoxyphenyl)-4,5-dimethyl-5-(trifluoromethyl)-tetrahydrofuran-2-carboxamide], ≥ 1000 nM; with `COc1c([C@H]2[C@H](C(=O)Nc3ccnc(N4CC(N(C)C)CC4=O)c3)O[C@@](C)(C(F)(F)F)[C@H]2C)ccc(F)c1F` (single isomer, unassigned) [Compound 505, rel-(2R*,3S*,4S*,5R*)-3-(3,4-difluoro-2-methoxyphenyl)-N-(2-(4-(dimethylamino)-2-oxopyrrolidin-1-yl)pyridin-4-yl)-4,5-dimethyl-5-(trifluoromethyl)tetrahydrofuran-2-carboxamide], 10 to 100 nM.
The value for `COc1c([C@H]2[C@H](C(=O)Nc3ccc4nc(CO)cn4c3)O[C@@](C)(C(F)(F)F)[C@H]2C)ccc(F)c1F` [Compound 264, (2R,3S,4S,5R)-3-(3,4-difluoro-2-methoxyphenyl)-N-(2-(hydroxymethyl)imidazo[1,2-a]pyridin-6-yl)-4,5-dimethyl-5-(trifluoromethyl)tetrahydrofuran-2-carboxamide] was 10 to 100 nM; that for `COc1c(C2C(C(=O)Nc3ccnc(CO)c3)OC(C)(C(F)(F)F)C2C)ccc(F)c1F` (centres unmarked) [Compound 61, 3-(3,4-difluoro-2-methoxy-phenyl)-N-[2-(hydroxymethyl)-4-pyridyl]-4,5-dimethyl-5-(trifluoromethyl)tetrahydrofuran-2-carboxamide] was ≥ 1000 nM.
With `COc1c([C@H]2[C@H](C(=O)Nc3ccnc(C4(N(C)C)COC4)c3)O[C@@](C)(C(F)(F)F)[C@H]2C)ccc(F)c1F` [Compound 362, (2R,3S,4S,5R)-3-(3,4-difluoro-2-methoxyphenyl)-N-(2-(3-(dimethylamino)oxetan-3-yl)pyridin-4-yl)-4,5-dimethyl-5-(trifluoromethyl)tetrahydrofuran-2-carboxamide], the IC50 was < 10 nM.
The value for `COc1c([C@H]2[C@H](C(=O)Nc3ncc(O)cn3)O[C@@](C)(C(F)(F)F)[C@H]2C)ccc(F)c1F` [Compound 444, (2R,3S,4S,5R)-3-(3,4-difluoro-2-methoxy-phenyl)-N-(5-hydroxypyrimidin-2-yl)-4,5-dimethyl-5-(trifluoromethyl)tetrahydrofuran-2-carboxamide] was 100 to 1000 nM; that for `C[C@H]1[C@@H](c2ccc(F)c(F)c2O)[C@H](C(=O)Nc2ccnc(CO)c2)O[C@@]1(C)C(F)(F)F` [Compound 638, (2R,3S,4S,5R)-3-(3,4-difluoro-2-hydroxyphenyl)-N-(2-(hydroxymethyl)pyridin-4-yl)-4,5-dimethyl-5-(trifluoromethyl)tetrahydrofuran-2-carboxamide] was 10 to 100 nM.
